Assay results published in the supplement of paper PMC10307832.

Assays:
Experiment in all cases: relative viability (nuclei count vs DMSO), 5 days (fraction); higher = more cells survive
[1] = compound: CC[C@H](C)N1C=C(C2=C(C=C(C=C21)C3=CN=C(C=C3)N4CCNCC4)C(=O)NCC5=C(C=C(NC5=O)C)C)C [GSK126] + Nc1nc2[nH]cc(CCc3ccc(C(=O)N[C@@H](CCC(=O)O)C(=O)O)cc3)c2c(=O)[nH]1 [Pemetrexed] (partner 0.2 µM)
Summary of the method: (§1)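 Nuclei were stained with Hoechst during a one-step fixation (final 0.05% Triton X-100, 1% formaldehyde, 1 ug/ml Hoechst) carried out 5 days after dosing, then counted on 4× images. The cells, lung cancer lines in 1536-well plates, had been dosed by pin tool the day after seeding with one drug alone or a fixed anchor-drug dose plus five library-drug doses (not always all listed) in √10 steps. Relative viability is the nuclei count in treated wells divided by that in vehicle wells, and each value is the median of duplicate plates.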

[2] = compound: NS(=O)(=O)OC[C@@H]1C[C@@H](n2ccc3c(N[C@H]4CCc5ccccc54)ncnc32)C[C@@H]1O [MLN4924] + CS(=O)(=O)CCNCc1ccc(-c2ccc3ncnc(Nc4ccc(OCc5cccc(F)c5)c(Cl)c4)c3c2)o1 [Lapatinib] (partner 2 µM)
Summary of the method: as §1

[3] = compound: NS(=O)(=O)OC[C@@H]1C[C@@H](n2ccc3c(N[C@H]4CCc5ccccc54)ncnc32)C[C@@H]1O [MLN4924] + Cc1cc(Nc2cc(N3CCN(C)CC3)nc(Sc3ccc(NC(=O)C4CC4)cc3)n2)n[nH]1 [Tozasertib] (partner 0.1 µM)
Summary of the method: as §1

[4] = compound: NS(=O)(=O)OC[C@@H]1C[C@@H](n2ccc3c(N[C@H]4CCc5ccccc54)ncnc32)C[C@@H]1O [MLN4924] + CC(C)C[C@H](NC(=O)[C@H](Cc1ccccc1)NC(=O)c1cnccn1)B(O)O [Bortezomib] (partner 0.002 µM)
Summary of the method: as §1

Row | Cell Line | relative viability ([1]; first compound 0.08 µM) | relative viability ([1]; first compound 0.253 µM) | relative viability ([1]; first compound 0.8 µM) | relative viability ([1]; first compound 2.53 µM) | relative viability ([1]; first compound 8 µM) | relative viability ([2]; first compound 0.04 µM) | relative viability ([2]; first compound 0.1265 µM) | relative viability ([2]; first compound 0.4 µM) | relative viability ([2]; first compound 1.265 µM) | relative viability ([2]; first compound 4 µM) | relative viability ([3]; first compound 0.04 µM) | relative viability ([3]; first compound 0.1265 µM) | relative viability ([3]; first compound 0.4 µM) | relative viability ([3]; first compound 1.265 µM) | relative viability ([3]; first compound 4 µM) | relative viability ([4]; first compound 0.04 µM) | relative viability ([4]; first compound 0.1265 µM) | relative viability ([4]; first compound 0.4 µM) | relative viability ([4]; first compound 1.265 µM) | relative viability ([4]; first compound 4 µM)
1 | NCI-H1793 | 0.981 | 0.825 | 0.876 | 0.916 | 0.932 | 0.662 | 0.645 | 0.395 | 0.136 | 0.167 | 0.337 | 0.356 | 0.368 | 0.252 | 0.168 |  |  |  |  | 
2 | LCLC-103H | 0.397 | 0.499 | 0.431 | 0.469 | 0.538 |  |  |  |  |  | 0.493 | 0.533 | 0.364 | 0.168 | 0.137 | 1.04 | 1.16 | 0.955 | 0.346 | 0.301
3 | NCI-H1944 | 0.719 | 0.641 | 0.607 | 0.654 | 0.567 | 0.834 | 0.919 | 0.636 | 0.164 | 0.17 | 0.233 | 0.226 | 0.235 | 0.159 | 0.117 |  |  |  |  | 
4 | NCI-H1623 |  |  |  |  |  |  |  |  |  |  | 0.42 | 0.372 | 0.398 | 0.203 | 0.195 |  |  |  |  | 
5 | NCI-H2342 | 0.851 | 0.762 | 0.744 | 0.879 | 0.881 |  |  |  |  |  | 0.416 | 0.455 | 0.533 | 0.445 | 0.408 |  |  |  |  | 
6 | ABC-1 |  |  |  |  |  | 1.11 | 1.45 | 1.71 | 0.773 | 0.552 | 0.154 | 0.155 | 0.144 | 0.132 | 0.149 | 0.344 | 0.331 | 0.259 | 0.274 | 0.211
7 | NCI-H1299 |  |  |  |  |  | 0.954 | 0.838 | 0.329 | 0.282 | 0.253 |  |  |  |  |  | 1.01 | 0.803 | 0.402 | 0.269 | 0.225
8 | SK-MES-1 | 1.01 | 0.996 | 0.979 | 0.941 | 1.09 | 0.534 | 0.722 | 0.486 | 0.281 | 0.212 | 0.773 | 0.682 | 0.33 | 0.157 | 0.189 |  |  |  |  | 
9 | NCI-H2170 | 0.249 | 0.245 | 0.271 | 0.256 | 0.264 | 0.258 | 0.301 | 0.25 | 0.208 | 0.228 | 0.722 | 0.407 | 0.325 | 0.151 | 0.155 |  |  |  |  | 
10 | NCI-H1648 | 0.693 | 0.766 | 0.884 | 0.945 | 0.76 |  |  |  |  |  | 0.417 | 0.164 | 0.247 | 0.203 | 0.279 |  |  |  |  | 
11 | LK-2 | 0.306 | 0.297 | 0.293 | 0.325 | 0.223 | 0.521 | 0.656 | 0.638 | 0.272 | 0.257 | 0.175 | 0.182 | 0.189 | 0.209 | 0.174 |  |  |  |  | 
12 | IA-LM |  |  |  |  |  | 0.256 | 0.239 | 0.103 | 0.0582 | 0.0755 |  |  |  |  |  | 0.381 | 0.202 | 0.0828 | 0.0567 | 0.0708
13 | ChaGo-K-1 | 0.256 | 0.269 | 0.265 | 0.256 | 0.254 |  |  |  |  |  | 0.22 | 0.174 | 0.221 | 0.184 | 0.158 | 0.535 | 0.53 | 0.436 | 0.337 | 0.278
14 | NCI-H441 | 0.289 | 0.281 | 0.272 | 0.248 | 0.267 |  |  |  |  |  | 0.674 | 0.444 | 0.329 | 0.236 | 0.22 | 0.876 | 0.29 | 0.236 | 0.145 | 0.191
15 | NCI-H1395 | 0.942 | 0.773 | 0.867 | 0.988 | 0.759 | 0.793 | 0.986 | 0.5 | 0.39 | 0.351 | 0.72 | 0.609 | 0.475 | 0.397 | 0.337 |  |  |  |  | 
16 | NCI-H727 |  |  |  |  |  | 0.692 | 0.704 | 0.352 | 0.24 | 0.192 | 0.677 | 0.462 | 0.432 | 0.335 | 0.328 | 0.624 | 0.512 | 0.313 | 0.267 | 0.225
17 | NCI-H358 | 0.184 | 0.182 | 0.174 | 0.166 | 0.197 | 0.585 | 0.654 | 0.345 | 0.25 | 0.236 | 0.108 | 0.0992 | 0.0886 | 0.0878 | 0.0989 |  |  |  |  | 
18 | Calu-6 |  |  |  |  |  | 0.868 | 0.6 | 0.211 | 0.122 | 0.129 |  |  |  |  |  | 1 | 0.557 | 0.219 | 0.152 | 0.158
19 | NCI-H1703 |  |  |  |  |  | 0.416 | 0.205 | 0.218 | 0.189 | 0.164 |  |  |  |  |  | 0.117 | 0.0992 | 0.138 | 0.111 | 0.123
20 | EBC-1 |  |  |  |  |  | 0.246 | 0.297 | 0.228 | 0.191 | 0.216 |  |  |  |  |  | 0.403 | 0.269 | 0.17 | 0.117 | 0.142
21 | SW 900 | 0.498 | 0.45 | 0.463 | 0.46 | 0.493 |  |  |  |  |  | 0.625 | 0.474 | 0.435 | 0.171 | 0.114 |  |  |  |  | 
22 | NCI-H522 | 1.02 | 0.772 | 0.95 | 0.865 | 1.06 |  |  |  |  |  | 0.503 | 0.502 | 0.458 | 0.363 | 0.304 |  |  |  |  | 
23 | A549 |  |  |  |  |  | 0.71 | 0.667 | 0.079 | 0.0634 | 0.0662 |  |  |  |  |  |  |  |  |  | 
